From patent US6503935B1, “Imidazoles and related compounds as α1A agonists” (Abbott Laboratories, priority 1998, dated 2003) come the findings set out here.

Data set [1] deals with Anesthetized Dogs. Nature of the data set: Intraurethral pressure (IUP) in anesthetized dogs. The class given is in vivo, dog. Conditions: Canis lupus familiaris; iv dose causing a maximum increase in IUP of 5 mm Hg, anesthetized female dogs; read-out: Mean IUP ED5.
Data set [2] relates to Anesthetized Dogs. As to the kind of experiment: Mean arterial pressure (MAP) in anesthetized dogs. The class given is in vivo, dog. Conditions: iv dose causing a maximum increase in MAP of 20 mm Hg, anesthetized female dogs. The source says: (§1) In vivo Functional Assays-Assessment of Intrurethral Pressure (IUP) and Mean Arterial Pressure (MAP) in Anesthetized Dogs
(§2) Female dogs (Marshall Farms, North Rose, N.Y.) greater that 2 years of age and weighing between 12 and 15 kg were used in these studies. At least 2 weeks prior to any agonist dosing, dogs were instrumented for the chronic measurement of arterial blood pressure by implanting a telemetry transducer/transmitter (TA11PA-C40, Data Sciences International, St. Paul, Minn.) into a carotid artery.
(§3) On the test day, dogs fasted since the previous afternoon were pre-anesthetized with thiopental sodium 15 mg/kg i.v. (Pentothal™, Abbott) and intubated. Anesthesia was maintained by allowing the dog to spontaneously breathe a mixture of isoflurane (2.5 to 3 volume %) and oxygen delivered by a Narkomed Standard anesthesia system (North American Drager, Telford, Pa.). An Abbocath-T™ i.v. catheter (18-G, Abbott) was inserted into the cephalic vein for the administration of agonists. A telemetry receiver (RA1310, DataSciences) was placed under the head of each dog and was interfaced to a computerized data acquisition system (Modular Instruments Inc.(MI2), Malvern, Pa.) which allowed for the continuous calibrated recording of arterial blood pressure which was electronically filtered to determine its mean value (MAP).
(§4) Dogs with chronic telemetry implants anesthetized as described above were placed in dorsal recumbency and a balloon catheter was inserted into the urethral orifice and advanced approximately 15 cm until the tip was well inside the bladder. The balloon was then inflated with 1 ml of room air and the catheter slowly withdrawn until resistance (corresponding to the bladder neck) was evident. The balloon was then deflated and the catheter withdrawn an additional 2 cm. The balloon was then reinflated and its catheter port connected to a Gould Statham P23Dd pressure transducer interfaced to a computerized data acquisition system (Modular Instruments, Inc., Malvern, Pa.) for the measurement of intraurethral pressure. Increasing iv doses of test agonists were administered and the maximum effect of each dose on IUP was recorded. The effect of each dose was allowed to return to baseline before the next dose was given.
(§5) From the resulting dose response curve, an ED5 value, for the dose causing a maximum increase in IUP of 5 mm Hg, could be estimated. An ED20 value for the dose causing a maximum increase in MAP of 20 mm Hg could also be estimated. A selectivity ratio of MAP ED20 vs. IUP ED5 was calculated.

Data set [3] has as its target T1, α1A (rat submaxillary gland) (Rattus norvegicus, UniProt P43140).
T1 construct: α1A (rat submaxillary gland); from tissue; host or cells: rat submaxillary gland
T1 sequence (P43140 1-466): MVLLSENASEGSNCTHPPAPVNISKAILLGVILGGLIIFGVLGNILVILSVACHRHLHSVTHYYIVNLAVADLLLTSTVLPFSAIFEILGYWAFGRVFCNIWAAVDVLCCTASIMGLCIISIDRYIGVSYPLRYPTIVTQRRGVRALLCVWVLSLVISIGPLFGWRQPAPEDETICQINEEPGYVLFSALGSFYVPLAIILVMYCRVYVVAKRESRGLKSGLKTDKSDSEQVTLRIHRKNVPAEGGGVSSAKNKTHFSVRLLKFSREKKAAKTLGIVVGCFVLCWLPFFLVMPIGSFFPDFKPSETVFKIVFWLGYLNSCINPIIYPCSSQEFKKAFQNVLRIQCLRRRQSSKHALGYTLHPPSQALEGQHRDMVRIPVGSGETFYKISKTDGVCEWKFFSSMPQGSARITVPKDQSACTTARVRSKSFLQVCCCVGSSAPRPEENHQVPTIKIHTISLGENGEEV
As to the kind of experiment: Radioligand binding with [3H]-prazosin, α1A. Conditions: rat submaxillary gland, [3H]-prazosin. The protocol: (§6) For purposes of discussing α1 adrenoceptor subtypes, the IUPHAR convention of using lower case letters to define molecular clones and upper case letters to indicate pharmacologically defined adrenoceptors has been followed. Compounds of formula I were evaluated in radioligand binding assays specific for α1A (rat submaxillary gland), α1b (hamster receptor expressed in mouse fibroblasts) and α1d (rat receptor expressed in mouse fibroblasts) using [^3H]-prazosin as the radioligand as described in Knepper, et al. J. Pharm.

The target in data set [4] is T2, α1d (rat receptor expressed in mouse fibroblasts) (Rattus norvegicus, UniProt P23944).
T2 construct: expressed in transfected cells; host or cells: mouse fibroblasts
T2 sequence (P23944 1-561): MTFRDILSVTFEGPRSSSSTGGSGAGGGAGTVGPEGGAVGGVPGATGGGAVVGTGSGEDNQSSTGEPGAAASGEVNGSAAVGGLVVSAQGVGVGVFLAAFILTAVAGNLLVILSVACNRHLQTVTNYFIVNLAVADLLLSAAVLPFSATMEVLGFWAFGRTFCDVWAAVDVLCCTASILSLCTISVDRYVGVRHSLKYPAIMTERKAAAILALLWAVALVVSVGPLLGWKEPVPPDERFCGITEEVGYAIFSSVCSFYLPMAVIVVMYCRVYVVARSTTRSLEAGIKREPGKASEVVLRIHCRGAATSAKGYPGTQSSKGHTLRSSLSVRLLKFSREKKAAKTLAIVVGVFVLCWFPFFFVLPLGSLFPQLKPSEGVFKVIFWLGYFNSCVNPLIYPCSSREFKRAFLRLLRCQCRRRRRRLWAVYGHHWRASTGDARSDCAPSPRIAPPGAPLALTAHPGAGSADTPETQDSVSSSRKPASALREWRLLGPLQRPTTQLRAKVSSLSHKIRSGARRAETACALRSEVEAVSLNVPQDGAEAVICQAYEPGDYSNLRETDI
Nature of the data set: Radioligand binding with [3H]-prazosin, α1d. Conditions: Radioligand Binding Ki α1d (Rat), rat receptor expressed in mouse fibroblasts, [3H]-prazosin. As for the experimental part:
as §6

For data set [5], the target named is T3, α1b (hamster receptor expressed in mouse fibroblasts) (Mesocricetus auratus, UniProt P18841).
T3 construct: expressed in transfected cells; host or cells: mouse fibroblasts
T3 sequence (P18841 1-515): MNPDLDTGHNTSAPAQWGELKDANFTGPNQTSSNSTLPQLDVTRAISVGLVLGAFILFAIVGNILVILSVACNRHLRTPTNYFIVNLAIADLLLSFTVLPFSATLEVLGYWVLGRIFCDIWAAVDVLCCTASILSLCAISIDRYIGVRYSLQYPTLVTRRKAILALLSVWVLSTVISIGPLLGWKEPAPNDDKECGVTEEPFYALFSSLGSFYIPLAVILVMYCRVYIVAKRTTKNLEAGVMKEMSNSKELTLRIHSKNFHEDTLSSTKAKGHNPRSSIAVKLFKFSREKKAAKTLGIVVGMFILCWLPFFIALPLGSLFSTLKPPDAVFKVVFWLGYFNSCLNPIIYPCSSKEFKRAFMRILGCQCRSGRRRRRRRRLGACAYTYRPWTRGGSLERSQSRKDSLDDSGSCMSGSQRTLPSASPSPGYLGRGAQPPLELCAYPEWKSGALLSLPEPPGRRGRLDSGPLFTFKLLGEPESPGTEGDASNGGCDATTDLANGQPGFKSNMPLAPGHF
As to the kind of experiment: Radioligand binding with [3H]-prazosin, α1b. As for the experimental part: as §6

A further data set addresses T4, α1B (rat spleen) (Rattus norvegicus, UniProt P15823).
T4 construct: α1B (rat spleen) and α1D (rat aorta) receptors; from tissue; host or cells: rat spleen
T4 sequence (P15823 1-515): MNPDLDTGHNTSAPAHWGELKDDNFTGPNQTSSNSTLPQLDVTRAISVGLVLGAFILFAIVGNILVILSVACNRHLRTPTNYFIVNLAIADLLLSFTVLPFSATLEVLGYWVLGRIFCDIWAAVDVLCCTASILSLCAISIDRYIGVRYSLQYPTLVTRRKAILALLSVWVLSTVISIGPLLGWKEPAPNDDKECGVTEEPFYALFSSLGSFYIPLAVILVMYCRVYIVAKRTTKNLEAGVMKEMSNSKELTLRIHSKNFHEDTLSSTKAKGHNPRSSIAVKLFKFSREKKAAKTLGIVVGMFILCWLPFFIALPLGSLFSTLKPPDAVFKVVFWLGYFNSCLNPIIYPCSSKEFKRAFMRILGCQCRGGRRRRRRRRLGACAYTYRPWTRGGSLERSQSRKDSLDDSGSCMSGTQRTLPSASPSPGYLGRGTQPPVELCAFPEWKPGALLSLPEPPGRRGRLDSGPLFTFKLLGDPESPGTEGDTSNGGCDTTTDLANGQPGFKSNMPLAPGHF
As to the kind of experiment: Agonist contraction of smooth muscle tissue, rat spleen. Type of data set: cell-based. Conditions: rat spleen; read-out: Agonist Tissue Response (pD2) α1B (rat spleen) (converted).

Another data set deals with T5, α1D (rat aorta) (Rattus norvegicus, UniProt P23944).
T5 construct: α1B (rat spleen) and α1D (rat aorta) receptors; from tissue; host or cells: rat aorta strips, endothelium removed
T5 sequence (P23944 1-561): T2 sequence (P23944 1-561)
As to the kind of experiment: Agonist contraction of smooth muscle tissue, rat aorta. The class given is cell-based. Conditions: rat aorta, endothelium removed; read-out: Agonist Tissue Response (pD2) α1D (rat aorta) (converted).

The target in another data set is T6, α1A (rabbit urethra) (Oryctolagus cuniculus, UniProt O02824).
T6 construct: tested for α1A functional activity using rabbit urethra; from tissue; host or cells: rabbit urethra
T6 sequence (O02824 1-466): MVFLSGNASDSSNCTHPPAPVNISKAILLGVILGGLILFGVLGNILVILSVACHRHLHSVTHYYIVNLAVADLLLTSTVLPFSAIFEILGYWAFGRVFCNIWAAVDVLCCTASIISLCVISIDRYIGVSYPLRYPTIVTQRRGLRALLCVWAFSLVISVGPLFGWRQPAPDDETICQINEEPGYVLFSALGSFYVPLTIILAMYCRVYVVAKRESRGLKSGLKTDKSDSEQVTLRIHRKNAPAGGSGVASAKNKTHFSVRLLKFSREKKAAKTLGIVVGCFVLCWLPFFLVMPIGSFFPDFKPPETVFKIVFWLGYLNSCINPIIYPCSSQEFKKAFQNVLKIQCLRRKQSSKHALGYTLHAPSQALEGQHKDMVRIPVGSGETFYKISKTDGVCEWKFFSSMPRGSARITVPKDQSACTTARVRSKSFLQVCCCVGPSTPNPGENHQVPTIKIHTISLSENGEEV
Nature of the data set: Agonist contraction of smooth muscle tissue, rabbit urethra. Conditions: rabbit urethra; read-out: Agonist Tissue Response (pD2) α1A (rab ureth) (converted). Type of data set: cell-based. As for the experimental part: Most of the compounds were tested for α1A functional activity using rabbit urethra as follows. Female New Zealand white rabbits (2.0-3.5 Kg) were sedated with CO2 and decapitated. […] Subsequent experimental conditions were as described above for the other tissues. Agonist concentration response curves were cumulative except for the vas deferens assay in which the transient response made such measurements impractical.

Data set [6] relates to Anesthetized Dogs. As to the kind of experiment: Intraurethral pressure (IUP) in anesthetized dogs. The class given is in vivo, dog. Conditions: iv, anesthetized female dogs.
From the text: as §1, §2, §3, §4, §5

Where a name gives a salt, the structure may show the parent alone. Read-outs that look alike come from different tables or passages of the source. Bounds are passed on as bounds.

Turning to `CS(=O)(=O)Nc1cccc2c1CCC[C@H]2c1c[nH]cn1` [Example 9, (+)-N-[(5R)-5-(1H-imidazol-4-yl)-5,6,7,8-tetrahydro-1-naphthalenyl]methanesulfonamide], the ED (5 mmHg IUP increase) in the data set with Anesthetized Dogs [1] turned out to be 0.0204 µmol/kg. Moreover, the “Mean MAP ED20” value in the data set with Anesthetized Dogs [2] was determined as 48.7 nmol/kg.

With `CS(=O)(=O)Nc1cccc2c1CCC[C@@H]2c1c[nH]cn1` [Example 10, (−)-N-[(5S)-5-(1H-imidazol-4-yl)-5,6,7,8-tetrahydro-1-naphthalenyl]methanesulfonamide], in the data set with Anesthetized Dogs [1], the ED (5 mmHg IUP increase) was over 0.3 µmol/kg. In addition, the “Mean MAP ED20” value in the data set with Anesthetized Dogs [2] is recorded as over 300 nmol/kg.

Turning to `CS(=O)(=O)Nc1cc(Cc2c[nH]cn2)ccc1O` [Example 11, N-[2-hydroxy-5-(1H-imidazol-4-ylmethyl)phenyl]methanesulfonamide, hydrochloride], the Ki turned out to be 0.0822 µM in [3], 0.311 µM in data set [4] and 1.4 µM in [5]. The figures for the EC50 at α1B (rat spleen), on α1D (rat aorta) and at α1A (rabbit urethra) were 1.2 µM, 0.692 µM and 0.148 µM, respectively.

As to `CC(=O)Nc1cccc2c1CCCC2c1c[nH]cn1.O=C(O)/C=C\C(=O)O` (stereo not shown) [Example 16, N-[5,6,7,8-tetrahydro-5-(1H-imidazol-4-yl)-1-naphthalenyl]acetamide, maleate], the ED (5 mmHg IUP increase) in the data set on Anesthetized Dogs [1] amounted to 0.0684 µmol/kg. In addition, in the data set with Anesthetized Dogs [2], the “Mean MAP ED20” value was 220 nmol/kg.

For the compound `CS(=O)(=O)Nc1cccc2c1OCCC2c1c[nH]cn1.O=C(O)/C=C\C(=O)O` (stereo not shown) [Example 19, N-[4-(1H-imidazol-4-yl)-3,4-dihydro-2H-chromen-8-yl]methanesulfonamide, maleate], the ED (5 mmHg IUP increase) in the data set with Anesthetized Dogs [1] is 0.0671 µmol/kg.

Consider `O=C(O)/C=C\C(=O)O.O=S(=O)(CC(F)(F)F)Nc1cccc2c1CCCC2c1c[nH]cn1` (stereo not shown) [Example 20, N-[5,6,7,8-tetrahydro-5-(1H-imidazol-4-yl)-1-naphthalenyl]-2,2,2-trifluoroethanesulfonamide, maleate], for which, in data set [3], the affinity corresponds to a Ki of 0.253 µM. Also, the ED (5 mmHg IUP increase) in the data set with Anesthetized Dogs [6] (Canis lupus familiaris, iv dose causing a maximum increase in IUP of 5 mm Hg, read-out: Mean IUP ED5) amounted to 0.209 µmol/kg. The “Mean Selectivity Ratio MAP ED20/IUP ED5” value with Anesthetized Dogs [6] is reported as 6.1. For the same compound, the figures for the EC50 at α1B (rat spleen), on α1D (rat aorta) and on α1A (rabbit urethra) were over 1000 µM, over 1000 µM and 2.82 µM, respectively. Besides, the “Mean MAP ED20” value with Anesthetized Dogs [2] is 885 nmol/kg.

Regarding `CCS(=O)(=O)Nc1cccc2c1CCC2c1c[nH]cn1.O=C(O)/C=C\C(=O)O` (stereo not shown) [Example 39, N-[1-(1H-imidazol4-yl)-2,3-dihydro-1H-inden-4-yl]ethanesulfonamide, maleate], in the data set on Anesthetized Dogs [1], the ED (5 mmHg IUP increase) came to 0.0044 µmol/kg. The “Mean MAP ED20” value with Anesthetized Dogs [2] is 5.6 nmol/kg.
